Measured values taken from BigSolDB 2.1.

Nc1ncnc2c1ncn2[C@@H]1O[C@H](CO)[C@@H](O)[C@H]1O
solubility (mole fraction)
Settings	278.15 K	283.15 K	288.15 K	293.15 K	298.15 K	303.15 K	308.15 K	313.15 K	318.15 K	323.15 K
in DMF	0.00414	0.00502	0.00594	0.00687	0.00784	0.00906	0.00993	0.0108	0.012	0.0127
in DMSO	–	–	–	0.00262	0.00299	0.00348	0.00394	0.00442	0.00488	0.00537
in NMP	0.0321	0.035	0.0376	0.0407	0.0437	0.0467	0.0496	0.0522	0.0554	0.0582
in propylene glycol	0.00352	0.00375	0.004	0.00431	0.00464	0.00497	0.00537	0.0058	0.00623	0.00665
in water	0.00019	0.000237	0.00029	0.000353	0.000426	0.000516	0.000611	0.000731	0.000876	0.00105
